Experimental data reported in US9056152B2, “Medical device with crystalline drug coating” (Boston Scientific Scimed, Inc., priority 2011, dated 2015).

How the values were obtained:
[1] = Porcine animal study of everolimus coated stents: drug in artery tissue (LC/MS) and drug remaining on stent (HPLC); format: in vivo, common swine; details: explanted at 28 days; for Tissue content at 28 days: 130 μg on 12 mm stents implanted in coronary and internal thoracic arteries of swine, drug in arteries by LC/MS; for % drug left on stent at 28 days: 130 μg on 12 mm stents implanted in swine arteries, drug remaining on stent by HPLC
Protocol: Stents coated with either crystalline or amorphous everolimus (130 μg on 12 mm stents) were implanted in the coronary arteries and internal thoracic arteries of common swine. The stented vessels were explanted after 3 hrs, 24 hrs, 7, 14 and 28 days. N=3 stents per timepoint were used. After sacrifice the stents were removed from the arteries and the amount of drug in the arteries was determined by LC/MS. The amount of drug remaining on the stent was determined by HPLC.

[2] = Everolimus solubility in water @ 37° C., amorphous vs crystalline form; format: physicochemical; details: data shown in FIG. 1
Protocol: FIG. 1 is a graph comparing everolimus solubility data in water @ 37° C. for amorphous and crystalline forms.

[3] = listed as crystalline everolimus

Compound | Tissue content at 28 days [1] | Tissue content at 28 days [1, 3] | % drug left on stent at 28 days [1] | % drug left on stent at 28 days [1, 3] | solubility in water [2] | Tissue content at 28 days ([1]; listed as amorphous everolimus) | % drug left on stent at 28 days ([1]; listed as amorphous drug)
CO[C@H]1C[C@@H]2CC[C@@H](C)[C@@](O)(O2)C(=O)C(=O)N2CCCC[C@H]2C(=O)O[C@H]([C@H](C)C[C@@H]2CC[C@@H](OCCO)[C@H](OC)C2)CC(=O)[C@H](C)/C=C(\C)[C@@H](O)[C@@H](OC)C(=O)[C@H](C)C[C@H](C)/C=C/C=C/C=C/1C [Crystalline Everolimus, 40-O-(2-Hydroxyethyl)rapamycin] | 6.1 ng/mg | 6 ng/mg | 25.8% | 25% | much lower solubility in water than amorphous everolimus |  | 
CO[C@H]1C[C@@H]2CC[C@@H](C)[C@@](O)(O2)C(=O)C(=O)N2CCCC[C@H]2C(=O)O[C@H]([C@H](C)C[C@@H]2CC[C@@H](OCCO)[C@H](OC)C2)CC(=O)[C@H](C)/C=C(\C)[C@@H](O)[C@@H](OC)C(=O)[C@H](C)C[C@H](C)/C=C/C=C/C=C/1C [Amorphous Everolimus, 40-O-(2-Hydroxyethyl)rapamycin] | 0.04 ng/mg |  | 0% |  |  | essentially no drug in the tissue | no drug remaining on the stents
